{"source": "patent US10426842B2", "about": "“Targeted nanoparticle conjugate and method for co-delivery of siRNA and drug” (The Curators of the University of Missouri, priority 2015, dated 2019)", "key": {"[1]": {"test_system": "H23 human adenocarcinoma non-small cell lung cancer cells", "experimental": "Considering downregulation of downstream-phosphorylated proteins, the cell viability of H23 cells (MTT assay) after knocking down the RAS pathway was then investigated.\n(Thermo Scientific, USA). For determining in vitro cytotoxicity, the MTT assay was performed by incubating various samples including the nanoparticle of interest on H23 and A549 cells.\nEach sample was analyzed in triplicate. After 24 hours of incubation, 10 μl of MTT solution (ATCC, USA) was added and the plate was incubated at 37° C. for 4 hours. Crystals formed were dissolved in 100 μl solubilizing buffer and the plates were kept at 25° C. for 2 hours. The intensity of the color developed after addition of the solubilizing buffer was measured using Biotek Cytation 3 spectrophotometer at 570 nm.\nViability of the cells transfected with various samples was then calculated by considering the untreated cells as 100% viable."}, "[2]": {"test_system": "SHP2, pSHP2 (Y542), pSHP2 (Y580) in KRAS mutated H23 cells", "assay": "Western blot and densitometry for SHP2 and phospho-SHP2", "method": "The Western blot analysis was performed as follows. Cells were seeded at a density of 1×10^6 cells/ml and incubated for overnight at 37° C. in 5% CO2 atmosphere. Nanoparticle and relevant control samples were incubated in serum free media for the period of 72 hrs. […] Whole-cell lysates were prepared using Triton X 100 lysis buffer with MS-SAFE protease and phosphatase cocktail inhibitor (Sigma-Aldrich) and the protein concentration was equalized by Bicinchoninic acid assay (Sigma-Aldrich).\nMembranes were incubated with primary antibody overnight, were washed and incubated with secondary antibody. Primary antibodies used for western blotting are rabbit polyclonal anti-β-actin, rabbit monoclonal anti-AKT, rabbit monoclonal anti-phospho-AKT, rabbit polyclonal anti-MEK1/2, rabbit polyclonal anti-phospho-MEK1/2, rabbit monoclonal anti-EGFR, rabbit monoclonal anti-phospho-EGFR, rabbit monoclonal anti-SHP2, rabbit polyclonal anti-phospho-SHP2 (Tyr542), rabbit polyclonal anti-phospho-SHP2 (Tyr580), rabbit monoclonal anti-phospho-GAB1 (Tyr627), rabbit polyclonal anti-phospho-GAB1 (Tyr307), all from Cell Signaling and mouse monoclonal anti-KRAS from Santa Cruz Biotech. […] Protein expression levels were quantified by densitometry analysis."}, "[3]": {"test_system": "DUSP6 gene expression in H23 cells", "assay": "Quantitative real-time RT-PCR of DUSP6", "assay_type": "cell-based, human", "details": "relative to untreated, 18sRNA reference", "method": "In this inquiry, quantitative real time PCR was performed to examine dual specificity phosphatase 6 (DUSP6) and CD73 gene expression levels.\n(§1) The effect of the oncogene knockdown on gene expression of DUSP6 and NT5E genes were observed by quantitative real-time RT-PCR. Initially H23 cells (1×10^6 cells/well) were treated with 4 samples including untreated, GelNP-Ab, GelNP-Ab-siRNA and siRNA (transfection agent). RNA was extracted through standard RNA extraction protocol. cDNA was synthesized from RNA extracted from the treated cells. The quality and the concentration of the extracted RNA was determined using bioanalyzer. 18sRNA was used as an reference gene (housekeeping gene) for data normalization. Primers and probes for all genes were purchased from Integrated DNA Technologies (IDT). PCR was performed in a reaction volume of 20 μl containing 2 μl cDNA using the Gene Amp 7700 Sequence Detection System. The comparative Ct protocol was followed to determine the relative expression levels."}, "[4]": {"test_system": "NT5E (CD73) gene expression in H23 cells", "assay": "Quantitative real-time RT-PCR of NT5E (CD73)", "assay_type": "cell-based, human", "details": "relative to untreated, 18sRNA reference", "method": "as §1"}}, "data": [{"substance": "transfected siRNA: KRAS G12C siRNA (SEQ ID NO. 1 annealed with SEQ ID NO. 2) delivered with transfecting agent (sense GUUGGAGCUUGUGGCGUAGUUUU; antisense AACUACGCCACAAGCUCCAACUU; disulfide moiety, further chemistry not given here)", "values": [{"measurement": "cytotoxicity / change in viability (in words)", "setting": "[1]", "value": "no toxicity"}, {"measurement": "cell survival post RAS oncogene knockdown", "setting": "[1]; H23 cells, without gefitinib", "value": 100, "unit": "%"}, {"measurement": "SHP2, pSHP2 (Y542) and pSHP2 (Y580) level", "setting": "[2]; in the presence of gefitinib", "value": "significant downregulation"}, {"measurement": "SHP2, pSHP2 (Y542) and pSHP2 (Y580) level", "setting": "[2]; without gefitinib", "value": "did not show any effect"}, {"measurement": "RF value of DUSP6 (real time qPCR)", "setting": "[3]", "value": 0.1}, {"measurement": "CD73 (NT5E) RF value (real time qPCR)", "setting": "[4]", "value": 1.07}]}]}
